Results published in patent publication EP0603240B1, “SAFENING HERBICIDAL PYRAZOLYLSULFONYLUREAS” (priority 1991, dated 1993).

Test system: corn
Test: Example 14, Procedure II: Herbicide No. 1 + metolachlor (No. 12) with Antidote No. 17
Type: in vivo
Protocol: Containers were filled and compacted with a fumigated silt loam top soil to a depth of about 1.3 cm from the top of the container. A first container was designated as an untreated control, a second container was designated as a herbicide control, and a third container was designated as a herbicide + antidote test container. Each of the containers was seeded with a crop species. A measured amount of herbicide dispersed or dissolved in acetone was applied to a measured quantity of soil. To this same quantity of soil treated with herbicide, there was added a measured amount of antidote dispersed or dissolved in acetone. The quantity of soil treated with the herbicide and antidote was thoroughly mixed to incorporate the herbicide and antidote in the soil uniformly. The seed bed in the third container of soil was covered with the soil treated with the herbicide and antidote and the container was leveled. For each test series, the seed beds of the first and second containers were likewise covered by soil layers. the cover layer of the first container was not treated with herbicide or antidote.
The containers were then placed on a bench in a greenhouse and sub-irrigated as required for the duration of the test. […] Plant response is measured in terms of percent injury. Antidote efficacy is indicated as the difference in plant injury by the herbicide(s) without the antidote and with the antidote.
This procedure is the same as Procedure I, but modified in the manner that after incorporation of the chemicals (herbicide and antidote) the containers with the covered seedbed were treated with an initial overhead irrigation equivalent to 0.6 cm rainfall, then subsequently sub-irrigated as required on greenhouse benches.
In this example a plurality of dichloroacetamide antidotes were tested for their safening efficacy against a herbicidal composition comprising Herbicide No. […] The procedure used in this example was Procedure II above. […]

## CC1COc2ccccc2N1C(=O)C(Cl)Cl (stereo not drawn) [compound 17]
Herbicide No.1 0.14 + No.12 4.48 kg/ha + Antidote No.17 0.15 kg/ha
  % Injury Corn: 15%
Herbicide No.1 0.56 + No.12 4.48 kg/ha + Antidote No.17 0.15 kg/ha
  % Injury Corn: 25%
Herbicide No.1 2.24 + No.12 4.48 kg/ha + Antidote No.17 0.15 kg/ha
  % Injury Corn: 80%
